From patent publication US20150217046A1, “DOSING REGIMENS FOR SUBCUTANEOUSLY INFUSIBLE ACIDIC COMPOSITIONS” (SynAgile Corporation, priority 2012, published 2015)

What was measured:
[1] = Infusion site reactions, intermittent subcutaneous infusion of 200 mg/mL LDEE pH 4.5 (Example 2); format: in vivo, minipigs
Excerpt: Each infusion site was spaced a minimum of 2.5 inches (6.3 cm) apart from any other infusion site.
In all cases, the infusion site reaction constituted a swelling of 0.5-4.0 cm diameter, typically 0.5-1.5 cm.

[2] = Infusion site reactions, intermittent subcutaneous infusion of 100 and 200 mg/mL LDEE pH 3.7 (Example 4); details: for infusion site reactions, doses pooled: 14 days post-infusion
Excerpt: Each infusion site was spaced a minimum of 2 inches (5 cm) apart from any other infusion site.

[3] = Infusion site reactions, intermittent and continuous subcutaneous infusion of 100 mg/mL LDEE pH 4.5 (Example 3); format: in vivo, minipigs
Excerpt: There were four treatment groups:
A: Six infusions, intermittent with ibuprofen.
B: Six infusions, intermittent with no ibuprofen.
C: Six infusions, continuous infusion with ibuprofen.
D: Six infusions, continuous infusion with no ibuprofen.

CCOC(=O)[C@@H](N)Cc1ccc(O)c(O)c1 [LDEE, levodopa ethyl ester]
diameter of swelling (infusion site reaction) ([1]; 200 mg/mL (0.89 M) LDEE pH 4.5, 140 mg, intermittent s.c., typically 0.5-1.5 cm): 0.5-4.0 cm | rate of small granuloma formation ([1]; 200 mg/mL (0.89M) LDEE pH 4.5, 140 mg, 14 days post-infusion): 33% | infusion site reactions ([1]; 200 mg/mL (0.89 M) LDEE pH 4.5, 14-15 days post-infusion): 8 out of 24 | infusion site reactions, doses pooled ([2]; 100 mg/mL LDEE pH 3.7): 0 out of 16 | infusion site reactions, doses pooled ([2]; 200 mg/mL LDEE pH 3.7): 5 out of 16 | tolerability of infused volume per site ([2]; LDEE pH 3.7, volumes between 0.094 and 0.37 mL per hour per site): well tolerated | # of Infusion Site Reactions/# of Infusion Sites ([2]; pH 3.7, intermittent s.c. (35 min non-delivery), 100 mg/mL, 563 mg, 16 hrs, 0 hrs): 0/4 | # of Infusion Site Reactions/# of Infusion Sites ([2]; pH 3.7, intermittent s.c. (35 min non-delivery), 100 mg/mL, 563 mg, 16 hrs, 12 hrs): 0/4 | # of Infusion Site Reactions/# of Infusion Sites ([2]; pH 3.7, intermittent s.c. (35 min non-delivery), 100 mg/mL, 563 mg, 16 hrs, 24 hrs): 2/4 | # of Infusion Site Reactions/# of Infusion Sites ([2]; pH 3.7, intermittent s.c. (35 min non-delivery), 100 mg/mL, 563 mg, 16 hrs, 3 days): 3/4 | # of Infusion Site Reactions/# of Infusion Sites ([2]; pH 3.7, intermittent s.c. (35 min non-delivery), 100 mg/mL, 563 mg, 16 hrs, 7 days): 3/4 | # of Infusion Site Reactions/# of Infusion Sites ([2]; pH 3.7, intermittent s.c. (35 min non-delivery), 100 mg/mL, 563 mg, 16 hrs, 14 days): 0/4 | # of Infusion Site Reactions/# of Infusion Sites ([2]; pH 3.7, intermittent s.c., 100 mg/mL, 140 mg, 8 hrs, 0 hrs): 0/8 | # of Infusion Site Reactions/# of Infusion Sites ([2]; pH 3.7, intermittent s.c., 100 mg/mL, 140 mg, 8 hrs, 12 hrs): 0/8 | # of Infusion Site Reactions/# of Infusion Sites ([2]; pH 3.7, intermittent s.c., 100 mg/mL, 140 mg, 8 hrs, 24 hrs): 0/8 | # of Infusion Site Reactions/# of Infusion Sites ([2]; pH 3.7, intermittent s.c., 100 mg/mL, 140 mg, 8 hrs, 3 days): 3/8 | # of Infusion Site Reactions/# of Infusion Sites ([2]; pH 3.7, intermittent s.c., 100 mg/mL, 140 mg, 8 hrs, 7 days): 1/8 | # of Infusion Site Reactions/# of Infusion Sites ([2]; pH 3.7, intermittent s.c., 100 mg/mL, 140 mg, 8 hrs, 14 days): 0/8 | # of Infusion Site Reactions/# of Infusion Sites ([2]; pH 3.7, intermittent s.c., 100 mg/mL, 282 mg, 16 hrs, 0 hrs): 0/4 | # of Infusion Site Reactions/# of Infusion Sites ([2]; pH 3.7, intermittent s.c., 100 mg/mL, 282 mg, 16 hrs, 12 hrs): 0/4 | # of Infusion Site Reactions/# of Infusion Sites ([2]; pH 3.7, intermittent s.c., 100 mg/mL, 282 mg, 16 hrs, 24 hrs): 1/4 | # of Infusion Site Reactions/# of Infusion Sites ([2]; pH 3.7, intermittent s.c., 100 mg/mL, 282 mg, 16 hrs, 3 days): 1/4 | # of Infusion Site Reactions/# of Infusion Sites ([2]; pH 3.7, intermittent s.c., 100 mg/mL, 282 mg, 16 hrs, 7 days): 0/4 | # of Infusion Site Reactions/# of Infusion Sites ([2]; pH 3.7, intermittent s.c., 100 mg/mL, 282 mg, 16 hrs, 14 days): 0/4 | # of Infusion Site Reactions/# of Infusion Sites ([2]; pH 3.7, intermittent s.c., 200 mg/mL, 140 mg, 8 hrs, 0 hrs): 0/8 | # of Infusion Site Reactions/# of Infusion Sites ([2]; pH 3.7, intermittent s.c., 200 mg/mL, 140 mg, 8 hrs, 12 hrs): 0/8 | # of Infusion Site Reactions/# of Infusion Sites ([2]; pH 3.7, intermittent s.c., 200 mg/mL, 140 mg, 8 hrs, 24 hrs): 0/8 | # of Infusion Site Reactions/# of Infusion Sites ([2]; pH 3.7, intermittent s.c., 200 mg/mL, 140 mg, 8 hrs, 3 days): 3/8 | # of Infusion Site Reactions/# of Infusion Sites ([2]; pH 3.7, intermittent s.c., 200 mg/mL, 140 mg, 8 hrs, 7 days): 3/8 | # of Infusion Site Reactions/# of Infusion Sites ([2]; pH 3.7, intermittent s.c., 200 mg/mL, 140 mg, 8 hrs, 14 days): 2/8 | # of Infusion Site Reactions/# of Infusion Sites ([2]; pH 3.7, intermittent s.c., 200 mg/mL, 282 mg, 16 hrs, 0 hrs): 0/4 | # of Infusion Site Reactions/# of Infusion Sites ([2]; pH 3.7, intermittent s.c., 200 mg/mL, 282 mg, 16 hrs, 12 hrs): 0/4 | # of Infusion Site Reactions/# of Infusion Sites ([2]; pH 3.7, intermittent s.c., 200 mg/mL, 282 mg, 16 hrs, 24 hrs): 0/4 | # of Infusion Site Reactions/# of Infusion Sites ([2]; pH 3.7, intermittent s.c., 200 mg/mL, 282 mg, 16 hrs, 3 days): 2/4 | # of Infusion Site Reactions/# of Infusion Sites ([2]; pH 3.7, intermittent s.c., 200 mg/mL, 282 mg, 16 hrs, 7 days): 2/4 | # of Infusion Site Reactions/# of Infusion Sites ([2]; pH 3.7, intermittent s.c., 200 mg/mL, 282 mg, 16 hrs, 14 days): 1/4 | # of Infusion Site Reactions/# of Infusion Sites ([2]; pH 3.7, intermittent s.c., 200 mg/mL, 563 mg, 16 hrs, 0 hrs): 0/4 | # of Infusion Site Reactions/# of Infusion Sites ([2]; pH 3.7, intermittent s.c., 200 mg/mL, 563 mg, 16 hrs, 12 hrs): 0/4 | # of Infusion Site Reactions/# of Infusion Sites ([2]; pH 3.7, intermittent s.c., 200 mg/mL, 563 mg, 16 hrs, 24 hrs): 0/4 | # of Infusion Site Reactions/# of Infusion Sites ([2]; pH 3.7, intermittent s.c., 200 mg/mL, 563 mg, 16 hrs, 3 days): 3/4 | # of Infusion Site Reactions/# of Infusion Sites ([2]; pH 3.7, intermittent s.c., 200 mg/mL, 563 mg, 16 hrs, 7 days): 3/4 | # of Infusion Site Reactions/# of Infusion Sites ([2]; pH 3.7, intermittent s.c., 200 mg/mL, 563 mg, 16 hrs, 14 days): 2/4 | diameter of firm swelling (infusion site reaction) ([3]; 100 mg/mL (0.44 M) LDEE pH 4.5, 281 mg over 16 h s.c.): 0.5-1.5 cm | # of Infusion Site Reactions/# of Infusion Sites ([3]; 100 mg/mL (0.44 M) LDEE pH 4.5, 281 mg over 16 h s.c., Treatment A intermittent with ibuprofen, 3 Days Post-Infusion): 2/6 | # of Infusion Site Reactions/# of Infusion Sites ([3]; 100 mg/mL (0.44 M) LDEE pH 4.5, 281 mg over 16 h s.c., Treatment A intermittent with ibuprofen, 10 Days Post-Infusion): 5/6 | # of Infusion Site Reactions/# of Infusion Sites ([3]; 100 mg/mL (0.44 M) LDEE pH 4.5, 281 mg over 16 h s.c., Treatment A intermittent with ibuprofen, 15 Days Post-Infusion): 0/6 | # of Infusion Site Reactions/# of Infusion Sites ([3]; 100 mg/mL (0.44 M) LDEE pH 4.5, 281 mg over 16 h s.c., Treatment A intermittent with ibuprofen, Immediately Post-Infusion): 0/6 | # of Infusion Site Reactions/# of Infusion Sites ([3]; 100 mg/mL (0.44 M) LDEE pH 4.5, 281 mg over 16 h s.c., Treatment B intermittent, no ibuprofen, 3 Days Post-Infusion): 1/6 | # of Infusion Site Reactions/# of Infusion Sites ([3]; 100 mg/mL (0.44 M) LDEE pH 4.5, 281 mg over 16 h s.c., Treatment B intermittent, no ibuprofen, 10 Days Post-Infusion): 1/6 | # of Infusion Site Reactions/# of Infusion Sites ([3]; 100 mg/mL (0.44 M) LDEE pH 4.5, 281 mg over 16 h s.c., Treatment B intermittent, no ibuprofen, 15 Days Post-Infusion): 0/6 | # of Infusion Site Reactions/# of Infusion Sites ([3]; 100 mg/mL (0.44 M) LDEE pH 4.5, 281 mg over 16 h s.c., Treatment B intermittent, no ibuprofen, Immediately Post-Infusion): 0/6 | # of Infusion Site Reactions/# of Infusion Sites ([3]; 100 mg/mL (0.44 M) LDEE pH 4.5, 281 mg over 16 h s.c., Treatment C continuous with ibuprofen, 3 Days Post-Infusion): 2/6 | # of Infusion Site Reactions/# of Infusion Sites ([3]; 100 mg/mL (0.44 M) LDEE pH 4.5, 281 mg over 16 h s.c., Treatment C continuous with ibuprofen, 10 Days Post-Infusion): 6/6 | # of Infusion Site Reactions/# of Infusion Sites ([3]; 100 mg/mL (0.44 M) LDEE pH 4.5, 281 mg over 16 h s.c., Treatment C continuous with ibuprofen, 15 Days Post-Infusion): 0/6 | # of Infusion Site Reactions/# of Infusion Sites ([3]; 100 mg/mL (0.44 M) LDEE pH 4.5, 281 mg over 16 h s.c., Treatment C continuous with ibuprofen, Immediately Post-Infusion): 0/6 | # of Infusion Site Reactions/# of Infusion Sites ([3]; 100 mg/mL (0.44 M) LDEE pH 4.5, 281 mg over 16 h s.c., Treatment D continuous, no ibuprofen, 3 Days Post-Infusion): 4/6 | # of Infusion Site Reactions/# of Infusion Sites ([3]; 100 mg/mL (0.44 M) LDEE pH 4.5, 281 mg over 16 h s.c., Treatment D continuous, no ibuprofen, 10 Days Post-Infusion): 1/6 | # of Infusion Site Reactions/# of Infusion Sites ([3]; 100 mg/mL (0.44 M) LDEE pH 4.5, 281 mg over 16 h s.c., Treatment D continuous, no ibuprofen, 15 Days Post-Infusion): 0/6 | # of Infusion Site Reactions/# of Infusion Sites ([3]; 100 mg/mL (0.44 M) LDEE pH 4.5, 281 mg over 16 h s.c., Treatment D continuous, no ibuprofen, Immediately Post-Infusion): 0/6 | infusion site reactions, all treatments pooled ([3]; 100 mg/mL (0.44 M) LDEE pH 4.5, 14-15 days post-infusion): 0 out of 24 | granuloma formation ([3]; 281 mg LDEE in 100 mg/mL (0.44 M), pH 4.5, 24 out of 24 infusions): no granuloma formation
